Measurements taken from ChEMBL document CHEMBL1201862, “PubChem BioAssay data set” (2004).
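How tested: cells in 96-well plates exposed to compound for 48 hours at five concentrations. GI50 = concentration required for 50% inhibition of growth.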 The source made the active and inactive calls. Cut-off read from the data, not from the text of the source: active = GI50 up to about 1.1 µM and inactive = higher.

Legend:
Assay in all cases: NCI-60 cell line screen, 48 h
A498 = test system: A498
ACHN = test system: ACHN
BT-549 = test system: BT-549
CAKI-1 = test system: CAKI-1
HOP-92 = test system: HOP-92
HT-29 = test system: HT-29
M14 = test system: M14
Malme-3M = test system: Malme-3M
NCI-H226 = test system: NCI-H226
NCI-H460 = test system: NCI-H460
NCI-H522 = test system: NCI-H522
NCI/ADR-RES = test system: NCI/ADR-RES
OVCAR-3 = test system: OVCAR-3
OVCAR-4 = test system: OVCAR-4
OVCAR-8 = test system: OVCAR-8
RXF 393 = test system: RXF 393
SF-268 = test system: SF-268
SK-MEL-2 = test system: SK-MEL-2
TK-10 = test system: TK-10
K562 = test system: K562

SMILES	GI50 (A498)	GI50 (ACHN)	GI50 (BT-549)	GI50 (CAKI-1)	GI50 (HOP-92)	GI50 (HT-29)	GI50 (M14)	GI50 (Malme-3M)	GI50 (NCI-H226)	GI50 (NCI-H460)	GI50 (NCI-H522)	GI50 (NCI/ADR-RES)	GI50 (OVCAR-3)	GI50 (OVCAR-4)	GI50 (OVCAR-8)	GI50 (RXF 393)	GI50 (SF-268)	GI50 (SK-MEL-2)	GI50 (TK-10)	GI50 (K562)
C=C(C)[C@@H]1CCC2=C[C@H](OC2=O)[C@@]2(C)C[C@@H]2C(=O)/C=C(/C)C(=O)[C@H]1OC(C)=O	23.2 µM (inactive)	17.3 µM (inactive)	11.4 µM (inactive)	14.2 µM (inactive)	41.2 µM (inactive)	11.1 µM (inactive)	24.4 µM (inactive)	12.1 µM (inactive)	23.9 µM (inactive)	30.1 µM (inactive)	4.3 µM (inactive)	26.5 µM (inactive)	14.3 µM (inactive)	13 µM (inactive)	15.1 µM (inactive)	16 µM (inactive)	28.1 µM (inactive)	26.3 µM (inactive)	24.5 µM (inactive)	
O=C1CCCC2C3CC(CN12)C1CCCCN1C3.[O-][Cl+3]([O-])([O-])O (configuration not stated)	> 100 µM (inactive)	> 100 µM (inactive)	> 100 µM (inactive)	> 100 µM (inactive)	> 100 µM (inactive)	> 100 µM (inactive)	> 100 µM (inactive)	> 100 µM (inactive)	> 100 µM (inactive)	> 100 µM (inactive)	> 100 µM (inactive)	> 100 µM (inactive)	> 100 µM (inactive)	> 100 µM (inactive)	> 100 µM (inactive)	> 100 µM (inactive)	> 100 µM (inactive)	> 100 µM (inactive)	> 100 µM (inactive)	
CN(/N=C/c1ccc(Cl)c(Cl)c1)C1=NCCCCN1	18.2 µM (inactive)	44.6 µM (inactive)	31 µM (inactive)	23.9 µM (inactive)	18.9 µM (inactive)	29.2 µM (inactive)	15.4 µM (inactive)	17.8 µM (inactive)	2.45 µM (inactive)	42.5 µM (inactive)	17.8 µM (inactive)	66.8 µM (inactive)	41.6 µM (inactive)	44.1 µM (inactive)	72.3 µM (inactive)		51.2 µM (inactive)	20.1 µM (inactive)	69.8 µM (inactive)	21.4 µM (inactive)
CCOC(=O)C1CCCC1S(=O)(=O)c1ccc(C)cc1 (configuration not stated)	45.3 µM (inactive)	> 100 µM (inactive)	> 100 µM (inactive)	> 100 µM (inactive)	> 100 µM (inactive)	> 100 µM (inactive)	> 100 µM (inactive)	> 100 µM (inactive)	> 100 µM (inactive)	> 100 µM (inactive)	> 100 µM (inactive)	> 100 µM (inactive)	> 100 µM (inactive)	> 100 µM (inactive)	> 100 µM (inactive)	> 100 µM (inactive)	> 100 µM (inactive)		> 100 µM (inactive)	> 100 µM (inactive)
C[N+](C)(C)CCN(Cc1cccs1)c1ccccn1	> 100 µM (inactive)	> 100 µM (inactive)	47.5 µM (inactive)	> 100 µM (inactive)	3.6 µM (inactive)		> 100 µM (inactive)	> 100 µM (inactive)	> 100 µM (inactive)	> 100 µM (inactive)	40.8 µM (inactive)	> 100 µM (inactive)	35.7 µM (inactive)	> 100 µM (inactive)	> 100 µM (inactive)	> 100 µM (inactive)	86.7 µM (inactive)	> 100 µM (inactive)	> 100 µM (inactive)	64.3 µM (inactive)
COc1ccc(NC(=O)CSc2nnc(-c3ccc(/N=C\c4ccc(Cl)cc4)cc3)o2)cc1	> 100 µM (inactive)	> 52.4 µM (inactive)	17 µM (inactive)		14.4 µM (inactive)	42.8 µM (inactive)	26.5 µM (inactive)	34 µM (inactive)	> 44.6 µM (inactive)	> 67.3 µM (inactive)	26.7 µM (inactive)	42.3 µM (inactive)	21.4 µM (inactive)	23.5 µM (inactive)	35.9 µM (inactive)	> 69.7 µM (inactive)	13.6 µM (inactive)	15 µM (inactive)	> 100 µM (inactive)	11 µM (inactive)
CCCC[C@@H]1CCN2C[C@@H](O)[C@@H](O)[C@@H]2[C@H]1O	> 100 µM (inactive)	> 100 µM (inactive)	> 100 µM (inactive)	> 100 µM (inactive)	> 100 µM (inactive)	> 100 µM (inactive)	> 100 µM (inactive)	> 100 µM (inactive)	> 100 µM (inactive)	> 100 µM (inactive)	> 100 µM (inactive)	> 100 µM (inactive)	> 100 µM (inactive)	> 100 µM (inactive)	> 100 µM (inactive)	> 100 µM (inactive)	> 100 µM (inactive)	> 100 µM (inactive)		> 100 µM (inactive)
Cc1ccc(Nc2nc(C)c(C(=O)CC(=O)C(=O)Nc3c(C)cccc3C(C)(C)C)s2)cc1	> 100 µM (inactive)	> 100 µM (inactive)	> 100 µM (inactive)	> 100 µM (inactive)	> 100 µM (inactive)	> 100 µM (inactive)	> 100 µM (inactive)		> 100 µM (inactive)	> 100 µM (inactive)	> 100 µM (inactive)	> 100 µM (inactive)	> 100 µM (inactive)	> 100 µM (inactive)	79.3 µM (inactive)	> 100 µM (inactive)	> 100 µM (inactive)	> 100 µM (inactive)	> 100 µM (inactive)	> 100 µM (inactive)
Cc1nn2c(C(=O)N/N=C/c3ccc([N+](=O)[O-])cc3)c(C)nc2s1	> 100 µM (inactive)	50 µM (inactive)	> 100 µM (inactive)	> 100 µM (inactive)	> 100 µM (inactive)	> 100 µM (inactive)	> 100 µM (inactive)	> 100 µM (inactive)	> 100 µM (inactive)	> 100 µM (inactive)	51.2 µM (inactive)	> 100 µM (inactive)	> 100 µM (inactive)	> 100 µM (inactive)	> 100 µM (inactive)	> 100 µM (inactive)	> 100 µM (inactive)		36.7 µM (inactive)	94.2 µM (inactive)
CCC(=O)NC(Nc1cccc(F)c1C)(C(F)(F)F)C(F)(F)F	> 100 µM (inactive)	> 100 µM (inactive)	> 100 µM (inactive)	> 100 µM (inactive)	> 100 µM (inactive)	> 100 µM (inactive)	> 100 µM (inactive)	> 100 µM (inactive)	> 100 µM (inactive)	> 100 µM (inactive)	> 100 µM (inactive)	> 100 µM (inactive)	> 100 µM (inactive)		> 100 µM (inactive)	3.88 µM (inactive)	> 100 µM (inactive)	> 100 µM (inactive)	> 100 µM (inactive)	> 100 µM (inactive)
CCC/N=C1\S/C(=C/c2ccc(OC)c(OC)c2)C(=O)N1c1ccccc1	21.5 µM (inactive)	42.8 µM (inactive)	74.8 µM (inactive)	44.5 µM (inactive)	33.1 µM (inactive)	> 100 µM (inactive)	> 100 µM (inactive)	> 100 µM (inactive)	41.8 µM (inactive)	61 µM (inactive)	40.6 µM (inactive)	93.1 µM (inactive)	12.6 µM (inactive)	16 µM (inactive)	82.2 µM (inactive)		15.1 µM (inactive)	31.8 µM (inactive)	22.8 µM (inactive)	> 100 µM (inactive)
O=c1[nH]nc(-c2ccccc2)n1/N=C\c1ccccc1	> 100 µM (inactive)	> 100 µM (inactive)	> 100 µM (inactive)	> 100 µM (inactive)	> 100 µM (inactive)	> 100 µM (inactive)		> 100 µM (inactive)	> 100 µM (inactive)	> 100 µM (inactive)	> 100 µM (inactive)	> 100 µM (inactive)	> 100 µM (inactive)	> 100 µM (inactive)	> 100 µM (inactive)	13.2 µM (inactive)	31 µM (inactive)	> 100 µM (inactive)	> 100 µM (inactive)	> 100 µM (inactive)
C/C(=N\Nc1nc2ccccc2[nH]1)c1cnccn1	1.98 µM (inactive)	0.231 µM (active)	6.04 µM (inactive)	0.447 µM (active)	0.385 µM (active)	0.394 µM (active)	0.614 µM (active)	0.791 µM (active)	0.441 µM (active)	0.394 µM (active)	0.169 µM (active)	0.64 µM (active)	0.296 µM (active)	0.617 µM (active)	0.8 µM (active)	0.392 µM (active)	0.53 µM (active)	1.45 µM (inactive)	4.09 µM (inactive)	1.23 µM (inactive)
CC(NNC(=O)c1cc[n+]([BH2-]C#N)cc1)c1ccccc1F (configuration not stated)	3.4 µM (inactive)	> 100 µM (inactive)	> 100 µM (inactive)	> 100 µM (inactive)	> 100 µM (inactive)		> 100 µM (inactive)	> 100 µM (inactive)	> 100 µM (inactive)	> 100 µM (inactive)	> 100 µM (inactive)	> 100 µM (inactive)	> 100 µM (inactive)	> 100 µM (inactive)	> 100 µM (inactive)	> 100 µM (inactive)	> 100 µM (inactive)	> 100 µM (inactive)	> 100 µM (inactive)	> 100 µM (inactive)
